Source: patent publication US9540343B2 (Gilead Sciences, Inc., priority 2011, dated 2017)

Legend:
HIV-IIIb = assay: Test A: Antiviral assay in MT4 cells; format: cell-based, HIV-1; details: MT-4 cells infected with HIV-IIIb, 5 days, CellTiter-Glo; for inhibition at 2 µM: Human immunodeficiency virus 1, IIIB, MT4, 120 h, read-out: % inhibition at 2 μM, percent inhibition of virus-induced cell killing, from dose response curve at 2 uM drug; for % inhibition at 2 μM: percent inhibition of virus-induced cell killing, from dose response curve at 2 uM drug
in vitro = assay: in vitro
In short: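 Cytoprotection read-out: CellTiter-Glo chemiluminescence after 5 days at 37 °C of HIV-IIIb-infected MT-4 cells (m.o.i. 0.003) with compound in 10-point 3-fold dilutions, quadruplicate, 10% FBS. Cytotoxicity (CC50) measured identically without virus.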

[1] = human, uninfected MT-4 cells, CC50 (nM), same protocol as Test A, CellTiter-Glo

Row | Compound | inhibition at 2 µM (HIV-IIIb) [%] | CC50 at 5 days (in vitro; [1]) [nM] | % inhibition at 2 μM (HIV-IIIb) [%] | CC50 at 5 days (in vitro; human, CC50 (nM), uninfected MT-4 cells, same protocol as Test A, CellTiter-Glo) [nM]
1 | Cc1cc2[nH]cc(CC(=O)N[C@@H](Cc3cc(F)cc(F)c3)c3ncccc3-c3cccc(C(N)=O)c3)c2[nH]c1=O [Example 354, (S)-3-(2-(2-(3,5-difluorophenyl)-1-(2-(6-methyl-5-oxo-4,5-dihydro-1H-pyrrolo[3,2-b]pyridin-3-yl)acetamido)ethyl)pyridin-3-yl)benzamide] | 82 | > 53000 | – | –
2 | CCC(C(=O)N[C@@H](Cc1cc(F)cc(F)c1)c1ncccc1-c1ccc(F)c(C(N)=O)c1)n1cc(C(F)(F)F)cn1 (single isomer, unassigned) [Example 565] | – | 37600 | 0 | –
3 | CCC(C(=O)N[C@@H](Cc1cc(F)cc(F)c1)c1ncccc1-c1ccc(F)c(C(N)=O)c1)n1nc(C(F)(F)F)cc1C1CC1 (stereo partly drawn) [Example 511C, 5-(2-((1S)-1-(2-(5-cyclopropyl-3-(trifluoromethyl)-1H-pyrazol-1-yl)butanamido)-2-(3,5-difluorophenyl)ethyl)pyridin-3-yl)-2-fluorobenzamide] | 17 | 11800 | – | –
4 | COC1CN(C(=O)c2cc(C(C)C)nn2CC(=O)N[C@@H](Cc2cc(F)cc(F)c2)c2ncccc2-c2ccc(F)c(C(N)=O)c2)C1 [Example 598, (S)-5-(2-(2-(3,5-difluorophenyl)-1-(2-(3-isopropyl-5-(3-methoxyazetidine-1-carbonyl)-1H-pyrazol-1-yl)acetamido)ethyl)pyridin-3-yl)-2-fluorobenzamide] | 3 | > 53200 | – | –
5 | NC(=O)c1cc(-c2cccnc2[C@H](Cc2cc(F)cc(F)c2)NC(=O)Cn2ccc3cc(Cl)ccc32)ccc1F [Example 585, (S)-5-(2-(1-(2-(5-chloro-1H-indol-1-yl)acetamido)-2-(3,5-difluorophenyl)ethyl)pyridin-3-yl)-2-fluorobenzamide] | 58 | 13700 | – | –
6 | CN1Cc2nn(CC(=O)N[C@@H](Cc3cc(F)cc(F)c3)c3ncccc3-c3ccc(F)c(C(N)=O)c3)c(C(F)(F)F)c2C1 [Example 210, (S)-5-(2-(2-(3,5-difluorophenyl)-1-(2-(5-methyl-3-(trifluoromethyl)-5,6-dihydropyrrolo[3,4-c]pyrazol-2(4H)-yl)acetamido)ethyl)pyridin-3-yl)-2-fluorobenzamide] | 0 | > 53200 | – | –
7 | NC(=O)c1cc(-c2cccnc2[C@H](Cc2cc(F)cc(F)c2)NC(=O)Cc2c[nH]c3ccc(C(F)(F)F)cc23)ccc1F [Example 54G, (S)-5-(2-(2-(3,5-difluorophenyl)-1-(2-(5-(trifluoromethyl)-1H-indol-3-yl)acetamido)ethyl)pyridin-3-yl)-2-fluorobenzamide] | 111 | 10300 | – | –
8 | O=C(Cc1c[nH]c2ccc(=O)[nH]c12)N[C@@H](Cc1cc(F)cc(F)c1)c1ncncc1-c1ccc(Cl)cc1 [Example 331B, (S)—N-(1-(5-(4-chlorophenyl)pyrimidin-4-yl)-2-(3,5-difluorophenyl)ethyl)-2-(5-oxo-4,5-dihydro-1H-pyrrolo[3,2-b]pyridin-3-yl)acetamide] | 99 | 43100 | – | –
9 | CS(=O)(=O)Nc1ccc(-c2cccnc2[C@H](Cc2cc(F)cc(F)c2)NC(=O)Cn2nc(C(F)F)c3c2C(F)(F)C2CC32)cc1 (stereo partly drawn) [Example 433, (S)—N-(1-(3-(4-(methylsulfonamido)phenyl)-pyridin-2-yl)-2-(3,5-difluorophenyl)ethyl)-2-(3-(difluoromethyl)-5,6-dihydro-4,5-(methano)-6,6-difluoro-cyclopenta[c]pyrazol-1(4H)-yl)acetamide] | 16 | 20800 | – | –
10 | CN(C)Cc1cn(CC(=O)N[C@@H](Cc2cc(F)cc(F)c2)c2ncccc2-c2ccc(F)c(C(N)=O)c2)nc1C(F)(F)F [Example 300, (S)-5-(2-(2-(3,5-difluorophenyl)-1-(2-(4-((dimethylamino)methyl)-3-(trifluoromethyl)-1H-pyrazol-1-yl)acetamido)ethyl)pyridin-3-yl)-2-fluorobenzamide] | 0 | > 53200 | – | –
11 | NC(=O)c1cc(-c2cccnc2[C@H](Cc2cc(F)cc(F)c2)NC(=O)Cn2nc(C(=O)O)c3c2COC3)ccc1F [Example 456, (S)-1-(2-(1-(3-(3-carbamoyl-4-fluorophenyl)pyridin-2-yl)-2-(3,5-difluorophenyl)ethylamino)-2-oxoethyl)-4,6-dihydro-1H-furo[3,4-c]pyrazole-3-carboxylic acid] | 0 | > 53200 | – | –
12 | NC(=O)c1cc(-c2cccnc2[C@H](Cc2cc(F)cc(F)c2)NC(=O)Cn2nc(C(F)(F)F)c3c2C(=O)CC3(F)F)ccc1F [Example 551, (S)-5-(2-(1-(2-(4,4-difluoro-6-oxo-3-(trifluoromethyl)-5,6-dihydrocyclopenta[c]pyrazol-1(4H)-yl)acetamido)-2-(3,5-difluorophenyl)ethyl)pyridin-3-yl)-2-fluorobenzamide] | 0 | > 53200 | – | –
13 | O=C(Cn1nc(C(F)F)c2c1C1CC1CC2)NC(Cc1cc(F)cc(F)c1)c1ncncc1-c1cnc2[nH]ccc2c1 (stereo not shown) [Example 299D, N-(1-(5-(1H-pyrrolo[2,3-b]pyridin-5-yl)pyrimidin-4-yl)-2-(3,5-difluorophenyl)ethyl)-2-(3-(difluoromethyl)-5,5a,6,6a-tetrahydrocyclopropa[g]indazol-1(4H)-yl)acetamide] | 100 | 19500 | – | –
14 | O=C(Cn1nc(C(F)(F)F)c2c1CCCC2)N[C@H](Cc1cc(F)cc(F)c1)c1ncncc1-c1ccc(Cl)cc1 [Example 383, (R)—N-(1-(5-(4-chlorophenyl)pyrimidin-4-yl)-2-(3,5-difluorophenyl)ethyl)-2-(3-(trifluoromethyl)-4,5,6,7-tetrahydro-1H-indazol-1-yl)acetamide] | 32 | 15500 | – | –
15 | O=C(Cn1nc(C(F)(F)F)c2c1CCCC2)N[C@@H](Cc1cc(F)cc(F)c1)c1ncccc1-c1cccc(C(=O)NC2CC2)c1 [Example 62, (S)—N-cyclopropyl-3-(2-(2-(3,5-difluorophenyl)-1-(2-(3-(trifluoromethyl)-4,5,6,7-tetrahydro-1H-indazol-1-yl)acetamido)ethyl)pyridin-3-yl)benzamide] | 80 | 9980 | – | –
16 | Cc1ccccc1-c1cccnc1[C@H](Cc1cccc(F)c1)NC(=O)Cn1nc(C(F)(F)F)c2c1CCCC2 [Example 25, (S)—N-(2-(3-fluorophenyl)-1-(3-o-tolylpyridin-2-yl)ethyl)-2-(3-(trifluoromethyl)-4,5,6,7-tetrahydro-1H-indazol-1-yl)acetamide] | 71 | 11900 | – | –
17 | NC(=O)c1cccc(-c2cccnc2[C@H](Cc2cc(F)cc(F)c2)NC(=O)Cc2c[nH]c3ccc(=O)[nH]c23)c1 [Example 51, (S)-3-(2-(2-(3,5-difluorophenyl)-1-(2-(5-oxo-4,5-dihydro-1H-pyrrolo[3,2-b]pyridin-3-yl)acetamido)ethyl)pyridin-3-yl)benzamide] | 52 | > 53000 | – | –
18 | CC(C)(C)OC(=O)N1CCc2c(c(C(F)(F)F)nn2CC(=O)N[C@@H](Cc2cc(F)cc(F)c2)c2ncccc2-c2ccc(F)c(C(N)=O)c2)C1 [Example 274, (S)-tert-butyl 1-(2-(1-(3-(3-carbamoyl-4-fluorophenyl)pyridin-2-yl)-2-(3,5-difluorophenyl)ethylamino)-2-oxoethyl)-3-(trifluoromethyl)-6,7-dihydro-1H-pyrazolo[4,3-c]pyridine-5(4H)-carboxylate] | 0 | 11000 | – | –
19 | NC(=O)c1cc(-c2cccnc2[C@H](Cc2cc(F)cc(F)c2)NC(=O)Cn2cc(C(F)(F)F)nc2C2CC2)ccc1F [Example 88E, (S)-5-(2-(1-(2-(2-cyclopropyl-4-(trifluoromethyl)-1H-imidazol-1-yl)acetamido)-2-(3,5-difluorophenyl)ethyl)pyridin-3-yl)-2-fluorobenzamide] | 44 | > 53200 | – | –
20 | CCC(C(=O)N[C@@H](Cc1cc(F)cc(F)c1)c1ncccc1-c1ccc(F)c(C(N)=O)c1)n1cc(C(C)=O)c2ccccc21 (stereo partly drawn) [Example 543, 5-(2-((1S)-1-(2-(3-acetyl-1H-indol-1-yl)butanamido)-2-(3,5-difluorophenyl)ethyl)pyridin-3-yl)-2-fluorobenzamide] | – | – | 4 | 44000
21 | CCC(C(=O)N[C@@H](Cc1cc(F)cc(F)c1)c1ncccc1-c1ccc(F)c(C(N)=O)c1)n1ccnc1C(C)C (single isomer, unassigned) [Example 558B] | – | > 53200 | 3 | –
22 | NC(=O)c1cc(-c2cccnc2[C@H](Cc2cccc(F)c2)NC(=O)Cc2cc(=O)[nH]c3ccccc23)ccc1F [Example 257, (S)-2-fluoro-5-(2-(2-(3-fluorophenyl)-1-(2-(2-oxo-1,2-dihydroquinolin-4-yl)acetamido)ethyl)pyridin-3-yl)benzamide] | 7 | > 53200 | – | –
23 | NC(=O)c1cc(-c2cccnc2[C@H](Cc2cc(F)cc(F)c2)NC(=O)Cn2nc(C(F)F)c3c2C(=O)C2CC32)ccc1F (stereo partly drawn) [Example 233B, 5-(2-((1S)-1-(2-(3-(difluoromethyl)-5-oxo-3b,4,4a,5-tetrahydro-1H-cyclopropa[3,4]cyclopenta[1,2-c]pyrazol-1-yl)acetamido)-2-(3,5-difluorophenyl)ethyl)pyridin-3-yl)-2-fluorobenzamide] | 5 | 32200 | – | –
